Where two headings read alike, the source gives them in different places.
Legend:
TEM-1 = TEM-1 (Escherichia coli, UniProt P62593); assay: β-lactamase inhibitory activity, IC50 (nitrocefin hydrolysis); type: biochemical
Description: (§3) Enzymes were cloned in E. coli expression vector, expressed and purified in house using classical procedures. […] After 30 min of pre-incubation at room temperature, 15 μL of NCF (100 μM final) were finally added in each well. […] Enzyme activity was obtained by subtracting the background from the final signal, and was converted to enzyme inhibition using non inhibited wells. IC50 curves were fitted to a classical Langmuir equilibrium model with Hill slope using XLFIT (IDBS).

SHV-1 = SHV-1 (Klebsiella pneumoniae, UniProt P0AD64); assay: as above; type: biochemical
Description: as §3

SHV-12 = SHV-12 (Klebsiella pneumoniae, UniProt P0AD64, E235K/G234S/L31Q); assay: as above; type: biochemical; conditions: SHV-12; 30 min pre-incubation, nitrocefin 100 μM; read-out: IC50
Description: (§4) Method 1: β-Lactamase Inhibitory Activity, Determination of IC50 (Table 1)
as §3

CTX-M-15 = CTX-M-15 (Escherichia coli, UniProt Q9EXV5); assay: as above; type: biochemical
Sequence of CTX-M-15 (Q9EXV5 entry or part of it): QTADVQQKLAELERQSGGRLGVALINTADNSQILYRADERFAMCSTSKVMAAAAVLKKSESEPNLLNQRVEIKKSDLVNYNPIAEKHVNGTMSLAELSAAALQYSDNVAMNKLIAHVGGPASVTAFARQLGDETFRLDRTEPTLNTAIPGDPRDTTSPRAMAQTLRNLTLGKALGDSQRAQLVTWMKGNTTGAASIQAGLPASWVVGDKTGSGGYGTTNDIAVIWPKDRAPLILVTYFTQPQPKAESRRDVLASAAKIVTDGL
Description: as §4, §3

KPC-2 = KPC-2 (Klebsiella pneumoniae, UniProt Q9F663); assay: as above; type: biochemical
Sequence of KPC-2 (Q9F663 25-293 limits assumed): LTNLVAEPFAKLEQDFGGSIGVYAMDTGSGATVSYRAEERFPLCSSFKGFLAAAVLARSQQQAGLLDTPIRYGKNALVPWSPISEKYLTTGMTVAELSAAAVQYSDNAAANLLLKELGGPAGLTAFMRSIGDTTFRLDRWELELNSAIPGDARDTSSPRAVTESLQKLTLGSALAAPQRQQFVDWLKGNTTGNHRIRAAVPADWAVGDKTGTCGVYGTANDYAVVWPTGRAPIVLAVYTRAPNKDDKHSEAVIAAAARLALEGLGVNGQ
Description: as §4, §3

SAU PC1 = SAU PC1 (Staphylococcus aureus, UniProt P00807); assay: as above; type: biochemical, S. aureus; conditions: SAU PC1; 30 min pre-incubation, nitrocefin 100 μM; read-out: IC50
Sequence of SAU PC1 (P00807 25-281): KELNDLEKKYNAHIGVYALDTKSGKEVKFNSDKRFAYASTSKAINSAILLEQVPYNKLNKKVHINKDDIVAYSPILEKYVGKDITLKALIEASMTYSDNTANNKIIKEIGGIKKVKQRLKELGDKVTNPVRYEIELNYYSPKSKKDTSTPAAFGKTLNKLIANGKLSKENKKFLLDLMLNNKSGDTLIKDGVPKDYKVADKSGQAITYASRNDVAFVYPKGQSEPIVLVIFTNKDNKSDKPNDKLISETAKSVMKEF
Description: as §4, §3

P99 ampC = P99 ampC (Enterobacter cloacae, UniProt P05364); assay: as above; type: biochemical
Sequence of P99 ampC (P05364 21-381): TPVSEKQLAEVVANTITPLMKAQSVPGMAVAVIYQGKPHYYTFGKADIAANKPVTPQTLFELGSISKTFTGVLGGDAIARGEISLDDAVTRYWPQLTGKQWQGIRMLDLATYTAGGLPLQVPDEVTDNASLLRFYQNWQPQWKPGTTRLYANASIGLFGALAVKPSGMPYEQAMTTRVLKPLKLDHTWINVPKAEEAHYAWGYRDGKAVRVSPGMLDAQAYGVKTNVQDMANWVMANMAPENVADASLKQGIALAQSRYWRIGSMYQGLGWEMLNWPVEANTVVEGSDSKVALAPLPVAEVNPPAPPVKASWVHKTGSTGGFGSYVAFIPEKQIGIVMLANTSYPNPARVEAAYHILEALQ
Description: as §4, §3

PAE ampC = PAE ampC (Pseudomonas aeruginosa, UniProt P24735); assay: as above; type: biochemical, P. aeruginosa
Sequence of PAE ampC (P24735 27-397): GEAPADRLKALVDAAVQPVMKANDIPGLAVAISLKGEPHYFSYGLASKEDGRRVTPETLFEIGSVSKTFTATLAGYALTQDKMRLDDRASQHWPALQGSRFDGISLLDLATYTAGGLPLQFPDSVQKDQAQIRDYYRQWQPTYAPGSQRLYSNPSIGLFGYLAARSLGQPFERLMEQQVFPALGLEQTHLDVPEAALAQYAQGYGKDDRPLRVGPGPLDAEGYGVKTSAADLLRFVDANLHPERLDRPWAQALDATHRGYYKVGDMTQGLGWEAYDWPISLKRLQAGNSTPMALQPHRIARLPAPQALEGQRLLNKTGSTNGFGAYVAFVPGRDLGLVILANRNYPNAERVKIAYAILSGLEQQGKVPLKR
Description: as §3

OXA-1 = OXA-1 (Escherichia coli, UniProt P13661); assay: as above; type: biochemical
Sequence of OXA-1 (P13661 26-276): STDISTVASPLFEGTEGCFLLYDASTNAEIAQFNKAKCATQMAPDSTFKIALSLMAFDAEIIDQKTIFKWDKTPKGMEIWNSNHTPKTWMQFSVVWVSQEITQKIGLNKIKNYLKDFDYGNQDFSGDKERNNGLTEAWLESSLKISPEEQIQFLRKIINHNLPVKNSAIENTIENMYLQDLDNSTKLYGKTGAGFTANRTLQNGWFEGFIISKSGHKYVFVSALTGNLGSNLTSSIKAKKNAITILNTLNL
Description: as §3

OXA-11 = OXA-11 (Pseudomonas aeruginosa, UniProt Q06778); assay: as above; type: biochemical
Sequence of OXA-11 (Q06778 21-266): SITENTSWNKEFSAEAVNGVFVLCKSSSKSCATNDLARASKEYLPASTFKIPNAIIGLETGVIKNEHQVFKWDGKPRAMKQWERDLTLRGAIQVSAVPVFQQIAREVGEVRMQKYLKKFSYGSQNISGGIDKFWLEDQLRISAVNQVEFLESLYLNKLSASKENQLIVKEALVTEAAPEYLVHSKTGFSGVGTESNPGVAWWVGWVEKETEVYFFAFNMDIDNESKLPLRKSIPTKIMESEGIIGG
Description: as §3

OXA-15 = OXA-15 (Pseudomonas aeruginosa, UniProt Q51574); assay: as above; type: biochemical
Sequence of OXA-15 (Q51574 22-275): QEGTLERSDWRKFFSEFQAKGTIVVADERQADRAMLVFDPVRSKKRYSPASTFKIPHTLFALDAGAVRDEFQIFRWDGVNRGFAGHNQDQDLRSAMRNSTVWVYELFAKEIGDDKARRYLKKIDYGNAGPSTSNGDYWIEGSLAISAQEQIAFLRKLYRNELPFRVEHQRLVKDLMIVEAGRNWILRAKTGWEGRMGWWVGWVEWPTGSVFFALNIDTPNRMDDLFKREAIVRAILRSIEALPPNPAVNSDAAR
Description: as §3

OXA-23 = OXA-23 (Acinetobacter baumannii, UniProt Q9L4P2); assay: as above; type: biochemical
Sequence of OXA-23 (Q9L4P2 18-273): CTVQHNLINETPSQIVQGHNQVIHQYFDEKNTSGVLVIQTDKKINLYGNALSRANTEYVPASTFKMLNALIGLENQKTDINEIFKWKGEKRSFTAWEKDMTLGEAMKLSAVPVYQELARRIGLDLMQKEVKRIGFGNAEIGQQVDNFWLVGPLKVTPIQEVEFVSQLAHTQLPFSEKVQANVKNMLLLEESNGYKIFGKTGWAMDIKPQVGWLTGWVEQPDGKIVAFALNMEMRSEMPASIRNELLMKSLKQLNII
Description: as §3

OXA-40 = OXA-40 (Acinetobacter baumannii, UniProt Q8RLA6); assay: as above; type: biochemical
Sequence of OXA-40 (Q8RLA6 entry or part of it): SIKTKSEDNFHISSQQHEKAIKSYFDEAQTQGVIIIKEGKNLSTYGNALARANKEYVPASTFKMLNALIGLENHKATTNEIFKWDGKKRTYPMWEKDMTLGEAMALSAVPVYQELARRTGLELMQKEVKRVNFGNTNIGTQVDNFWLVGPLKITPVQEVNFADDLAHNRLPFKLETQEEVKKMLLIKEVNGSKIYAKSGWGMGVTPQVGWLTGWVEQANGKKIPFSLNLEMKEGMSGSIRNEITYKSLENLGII
Description: as §3

OXA-48 = OXA-48 (Klebsiella pneumoniae, UniProt Q6XEC0); assay: as above; type: biochemical
Sequence of OXA-48 (Q6XEC0 23-265 limits assumed): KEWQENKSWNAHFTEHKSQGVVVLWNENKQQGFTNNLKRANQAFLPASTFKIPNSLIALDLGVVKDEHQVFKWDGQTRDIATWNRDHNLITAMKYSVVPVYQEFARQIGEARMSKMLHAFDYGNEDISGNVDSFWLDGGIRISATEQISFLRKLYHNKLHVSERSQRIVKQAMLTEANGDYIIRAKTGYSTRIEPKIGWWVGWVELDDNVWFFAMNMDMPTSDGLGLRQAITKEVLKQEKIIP
Description: as §3

OXA-58 = OXA-58 (Acinetobacter baumannii, UniProt Q2TR58); assay: as above; type: biochemical
Sequence of OXA-58 (Q2TR58 19-280): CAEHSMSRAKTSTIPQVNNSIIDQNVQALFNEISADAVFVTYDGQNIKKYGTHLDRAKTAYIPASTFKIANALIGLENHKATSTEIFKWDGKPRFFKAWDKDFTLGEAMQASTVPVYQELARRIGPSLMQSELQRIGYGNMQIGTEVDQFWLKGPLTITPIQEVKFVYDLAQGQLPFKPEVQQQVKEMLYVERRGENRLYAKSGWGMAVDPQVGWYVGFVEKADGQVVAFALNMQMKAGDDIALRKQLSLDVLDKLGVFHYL
Description: as §3

[1] = system: Citrobacter freundii (CFR) isolates; assay: MIC of compounds alone and combined with antibacterials, broth microdilution (CLSI); type: cell-based; conditions: Citrobacter freundii, strain CFR UFR250; compound alone
Description: (§1) Method 2: MIC of Compounds Alone and Combined with Antibacterials Against Bacterial Isolates
(§2) Compounds of the present invention were assessed against genotyped bacterial strains (Table 3, 4) alone or in combination with an antibacterial (Table 2). […] Log phase bacterial suspensions were adjusted to a final density of 5.10^5 CFU/mL in cation-adjusted Mueller-Hinton broth (ca-MHB; Becton-Dickinson and Company) and added to each well (98 μL). Microplates were incubated for 16-20 h at 35° C. in ambient air. The MIC of the compounds was defined as the lowest concentration of said compounds that prevented bacterial growth as read by visual inspection. The MIC of ATB at each compound concentration was defined as the lowest concentration of ATB that prevented bacterial growth as read by visual inspection.

[2] = system: Enterobacter aerogenes (EAE) isolates; assay: as above; type: cell-based; conditions: Klebsiella aerogenes
Description: as §1, §2

[3] = system: Escherichia coli (ECO) isolates; assay: as above; type: cell-based; conditions: Escherichia coli, compound alone, read-out: MIC
Description: as §1, §2

[4] = system: Klebsiella pneumoniae (KPN) isolates; assay: as above; type: cell-based; conditions: Klebsiella pneumoniae, compound alone, read-out: MIC
Description: as §1, §2

[5] = system: Serratia marcescens (SMA) isolates; assay: as above; type: cell-based; conditions: Serratia marcescens; strain SMA UFR143; compound alone; read-out: MIC
Description: as §1, §2

[6] = system: Proteus mirabilis (PMI) isolates; assay: microbe, parasite or virus in culture; type: cell-based; conditions: Proteus mirabilis, compound alone, read-out: MIC
Description: as §1, §2

[7] = system: Providencia stuartii (PST) isolates; assay: MIC of compounds alone and combined with antibacterials, broth microdilution (CLSI); type: cell-based; conditions: Providencia stuartii; strain PST UFR235; compound alone; read-out: MIC
Description: as §1
Compounds of the present invention were assessed against genotyped bacterial strains (Table 3, 4) alone or in combination with an antibacterial (Table 2). […]. Briefly, compounds alone according to the invention were prepared in DMSO and spotted (2 μL each) on sterile polystyrene plates (Corning, 3788). Combinations of compounds and antibiotics dilutions were prepared in DMSO and spotted (1 μL each) on sterile polystyrene plates (Corning, 3788). Log phase bacterial suspensions were adjusted to a final density of 5.10^5 CFU/mL in cation-adjusted Mueller-Hinton broth (ca-MHB; Becton-Dickinson and Company) and added to each well (98 μL). Microplates were incubated for 16-20 h at 35° C. in ambient air. The MIC of the compounds was defined as the lowest concentration of said compounds that prevented bacterial growth as read by visual inspection. The MIC of ATB at each compound concentration was defined as the lowest concentration of ATB that prevented bacterial growth as read by visual inspection.

Sequence of SHV-1 (P0AD64 22-286): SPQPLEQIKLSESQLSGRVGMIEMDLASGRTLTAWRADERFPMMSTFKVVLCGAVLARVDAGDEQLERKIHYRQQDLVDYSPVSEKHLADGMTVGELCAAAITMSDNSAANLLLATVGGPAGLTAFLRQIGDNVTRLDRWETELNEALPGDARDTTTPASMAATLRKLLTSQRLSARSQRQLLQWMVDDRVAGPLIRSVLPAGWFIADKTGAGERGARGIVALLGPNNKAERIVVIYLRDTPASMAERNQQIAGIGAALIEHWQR
Sequence of TEM-1 (P62593 24-286 limits assumed): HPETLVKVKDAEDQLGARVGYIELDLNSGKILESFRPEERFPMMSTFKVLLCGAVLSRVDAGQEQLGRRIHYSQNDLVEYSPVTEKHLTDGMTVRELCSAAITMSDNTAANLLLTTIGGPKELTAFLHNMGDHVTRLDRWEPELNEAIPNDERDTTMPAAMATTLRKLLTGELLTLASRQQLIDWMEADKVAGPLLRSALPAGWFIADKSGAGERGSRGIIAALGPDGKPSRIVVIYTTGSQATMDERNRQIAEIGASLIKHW
Sequence of SHV-12 (P0AD64 22-286 L31Q/G234S/E235K): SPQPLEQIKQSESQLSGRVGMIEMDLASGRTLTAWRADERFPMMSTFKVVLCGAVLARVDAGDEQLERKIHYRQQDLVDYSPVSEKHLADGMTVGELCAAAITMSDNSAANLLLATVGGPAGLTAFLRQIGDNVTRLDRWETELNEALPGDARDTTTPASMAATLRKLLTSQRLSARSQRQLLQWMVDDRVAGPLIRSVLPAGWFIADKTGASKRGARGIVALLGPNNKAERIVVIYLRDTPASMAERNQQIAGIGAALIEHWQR

Molecule `O=C1N2CC=C(c3cnoc3)C(C2)N1OC(F)(F)C(=O)[O-].[Li+]` (stereo not drawn) [AF1, Lithium difluoro-(4-isoxazol-4-yl-7-oxo-1,6-diaza-bicyclo[3.2.1]oct-3-en-6-yloxy)-acetate] has an IC50 (TEM-1) of 10 nM, an IC50 (SHV-1) of 20 nM and an IC50 (SHV-12) of 3.8 nM. The IC50 (CTX-M-15) was 2.4 nM, the IC50 (KPC-2) was 510 nM and the IC50 (SAU PC1) was 560 nM. It also gave an IC50 (P99 ampC) of 2200 nM, an IC50 (PAE ampC) of 4500 nM and an IC50 (OXA-1) of 1600 nM. For the same molecule, the IC50 (OXA-11) was 250 nM, the IC50 (OXA-15) was 24 nM and the IC50 (OXA-23) was 110 nM. It also gave an IC50 (OXA-40) of 120 nM, an IC50 (OXA-48) of 3 nM and an IC50 (OXA-58) of 15 nM. For the same molecule, the MIC [1] was > 32 µg/mL, the MIC [2] was 32 µg/mL and the MIC ([3]; strain ECO 190317) was 2 µg/mL. For the same molecule, the MIC ([3]; strain ECO 190457) was 4 µg/mL, the MIC ([3]; strain ECO UFR16) was 8 µg/mL and the MIC ([3]; strain ECO UFR20) was 16 µg/mL. The MIC ([3]; strain ECO UFR61O) was 8 µg/mL, the MIC ([3]; strain ECO UFR209) was 8 µg/mL and the MIC ([4]; strain KPN 110376) was > 32 µg/mL. For the same molecule, the MIC ([4]; strain KPN 131119) was > 32 µg/mL, the MIC ([4]; strain KPN 190270) was > 32 µg/mL and the MIC ([4]; strain KPN UFR25) was > 32 µg/mL. For the same molecule, the MIC ([4]; strain KPN UFR66) was > 32 µg/mL, the MIC ([4]; strain KPN UFR68) was > 32 µg/mL and the MIC [5] was 32 µg/mL. The MIC ([6]; strain PMI UFR126) was 8 µg/mL, the MIC ([6]; strain PMI UFR127) was 4 µg/mL and the MIC [7] was > 32 µg/mL.
